Reference: patent US20100216827A1 (Metabolex, Inc., priority 2008, published 2010)
Where two headings read alike, the source gives them in different places.

Target: T1, human GPR120 (Homo sapiens, UniProt Q5NUL3)
T1 construct: host or cells: HEK293 cells coexpressing Gqi5
T1 sequence (Q5NUL3 1-361): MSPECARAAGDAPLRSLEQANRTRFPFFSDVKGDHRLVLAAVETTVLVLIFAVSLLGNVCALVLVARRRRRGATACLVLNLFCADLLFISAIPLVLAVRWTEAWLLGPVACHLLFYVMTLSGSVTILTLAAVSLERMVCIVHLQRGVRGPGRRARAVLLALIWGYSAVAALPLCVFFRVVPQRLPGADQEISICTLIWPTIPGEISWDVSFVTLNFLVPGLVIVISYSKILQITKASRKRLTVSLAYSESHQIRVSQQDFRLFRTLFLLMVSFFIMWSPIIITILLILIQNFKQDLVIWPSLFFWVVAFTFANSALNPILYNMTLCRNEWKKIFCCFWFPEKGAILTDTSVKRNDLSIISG
Experiment: Intracellular Ca2+ (FLIPR Calcium 4, Flexstation) assay in human GPR120 stable HEK293 cell line coexpressing Gqi5
Type: cell-based
Details: for % Activity at 5 μM: 5 μM compound compared to the maximal activity of GW9508 at 6.7 μM (100%); for EC50: human GPR120 stably expressing cells, 8 concentrations 0.00001 to 20 μM
In short: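 Calcium 4 dye-loaded HEK293 cells expressing N-terminally Flag-tagged human GPR120 with Gqi5 (HBSS/20 mM HEPES, pH 7.4; 50 min, 37 °C). Fluorescence (485/525 nm) read for 90 s after addition of compound at 8 concentrations, 0.00001–20 μM; EC50 from Max−Min change. % activity at 5 μM versus maximal GW9508 response (6.7 μM).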

[1] = read-out: EC50 between >1 μM and ≦10 μM

With `Cc1cc(COc2c(F)cc(CC(C)C(=O)O)cc2F)n(-c2ccc3c(c2)CCC3)n1` (stereo not shown) [Example 81, 3-(4-((1-(2,3-dihydro-1H-inden-5-yl)-3-methyl-1H-pyrazol-5-yl)methoxy)-3,5-difluorophenyl)-2-methylpropanoic acid] the “% Activity at 5 μM” value was 106% and the EC50 (read-out: EC50 ≦ 1 μM) was ≤ 1000 nM.
For `CCCCc1ccc(-n2nc(C)cc2COc2c(F)cc(CC(C)C(=O)O)cc2F)cc1` (stereo not shown) [Example 82, 3-(4-((1-(4-butylphenyl)-3-methyl-1H-pyrazol-5-yl)methoxy)-3,5-difluorophenyl)-2-methylpropanoic acid], the “% Activity at 5 μM” value was 68% and the EC50 (read-out: EC50 ≦ 1 μM) was ≤ 1000 nM.
In the case of `CCc1ccc(-n2nc(C)cc2COc2c(F)cc(CC(C)C(=O)O)cc2F)cc1` (stereo not shown) [Example 83, 3-(4-((1-(4-ethylphenyl)-3-methyl-1H-pyrazol-5-yl)methoxy)-3,5-difluorophenyl)-2-methylpropanoic acid], the “% Activity at 5 μM” value is reported as 88% and the EC50 (read-out: EC50 ≦ 1 μM) is reported as ≤ 1000 nM.
In the case of `Cc1ccc(-n2nc(C)cc2COc2c(F)cc(CC(C)C(=O)O)cc2F)cc1` (stereo not shown) [Example 84, 3-(3,5-difluoro-4-((3-methyl-1-p-tolyl-1H-pyrazol-5-yl)methoxy)phenyl)-2-methylpropanoic acid], the “% Activity at 5 μM” value is reported as 106% and the EC50 (read-out: EC50 ≦ 1 μM) is reported as ≤ 1000 nM.
`Cc1cc(COc2c(F)cc(CC(C)C(=O)O)cc2F)n(-c2cccc(C(C)C)c2)n1` (stereo not shown) [Example 85, 3-(3,5-difluoro-4-((1-(3-isopropylphenyl)-3-methyl-1H-pyrazol-5-yl)methoxy)phenyl)-2-methylpropanoic acid] was tested, and the “% Activity at 5 μM” value was 95% and the EC50 (read-out: EC50 ≦ 1 μM) was ≤ 1000 nM.
With `Cc1cc(COc2ccc(CC(C)C(=O)O)cc2)n(-c2ccc(Cl)cc2)n1` (stereo not shown) [Example 86, 3-(4-((1-(4-chlorophenyl)-3-methyl-1H-pyrazol-5-yl)methoxy)phenyl)-2-methylpropanoic acid] the “% Activity at 5 μM” value was 98% and the EC50 (read-out: EC50 ≦ 1 μM) was ≤ 1000 nM.
In the case of `Cc1cc(COc2c(F)cc(CC(C)C(=O)O)cc2F)n(-c2ccc(C)c(C)c2)n1` (stereo not shown) [Example 87, 3-(4-((1-(3,4-dimethylphenyl)-3-methyl-1H-pyrazol-5-yl)methoxy)-3,5-difluorophenyl)-2-methylpropanoic acid], the “% Activity at 5 μM” value is reported as 106% and the EC50 (read-out: EC50 ≦ 1 μM) is reported as ≤ 1000 nM.
With `Cc1cc(COc2c(F)cc(CC(C)C(=O)O)cc2F)n(-c2ccc(C)c(Cl)c2)n1` (stereo not shown) [Example 88, 3-(4-((1-(3-chloro-4-methylphenyl)-3-methyl-1H-pyrazol-5-yl)methoxy)-3,5-difluorophenyl)-2-methylpropanoic acid] the “% Activity at 5 μM” value was 107% and the EC50 (read-out: EC50 ≦ 1 μM) was ≤ 1000 nM.
In the case of `Cc1cc(COc2c(F)cc(CC(C)C(=O)O)cc2F)n(-c2cccc(Cl)c2)n1` (stereo not shown) [Example 89, 3-(4-((1-(3-chlorophenyl)-3-methyl-1H-pyrazol-5-yl)methoxy)-3,5-difluorophenyl)-2-methylpropanoic acid], the “% Activity at 5 μM” value is reported as 107% and the EC50 (read-out: EC50 ≦ 1 μM) is reported as ≤ 1000 nM.
In the case of `CCc1ccc(-n2nc(C)cc2COc2ccc(CC(C)C(=O)O)cc2F)cc1` (stereo not shown) [Example 90, 3-(4-((1-(4-ethylphenyl)-3-methyl-1H-pyrazol-5-yl)methoxy)-3-fluorophenyl)-2-methylpropanoic acid], the “% Activity at 5 μM” value is reported as 99% and the EC50 (read-out: EC50 ≦ 1 μM) is reported as ≤ 1000 nM.
In the case of `CC(Cc1cc(F)c(OCc2ccnn2-c2ccccc2)c(F)c1)C(=O)O` (stereo not shown) [Example 91, 3-(3,5-difluoro-4-((1-phenyl-1H-pyrazol-5-yl)methoxy)phenyl)-2-methylpropanoic acid], the “% Activity at 5 μM” value is reported as 64% and the EC50 (read-out: EC50 ≦ 1 μM) is reported as ≤ 1000 nM.
For `Cc1cc(C)cc(-n2nc(C)cc2COc2c(F)cc(CC(C)C(=O)O)cc2F)c1` (stereo not shown) [Example 92, 3-(4-((1-(3,5-dimethylphenyl)-3-methyl-1H-pyrazol-5-yl)methoxy)-3,5-difluorophenyl)-2-methylpropanoic acid], the “% Activity at 5 μM” value was 58% and the EC50 (read-out: EC50 ≦ 1 μM) was ≤ 1000 nM.
`CC(Cc1cc(F)c(OCc2ccnn2-c2ccc(Cl)cc2)c(F)c1)C(=O)O` (stereo not shown) [Example 93, 3-(4-((1-(4-chlorophenyl)-1H-pyrazol-5-yl)methoxy)-3,5-difluorophenyl)-2-methylpropanoic acid] was tested, and the “% Activity at 5 μM” value was 108% and the EC50 (read-out: EC50 ≦ 1 μM) was ≤ 1000 nM.
With `Cc1cc(COc2c(F)cc(CC(C)C(=O)O)cc2F)n(-c2ccc(Cl)c(C)c2)n1` (stereo not shown) [Example 94, 3-(4-((1-(4-chloro-3-methylphenyl)-3-methyl-1H-pyrazol-5-yl)methoxy)-3,5-difluorophenyl)-2-methylpropanoic acid] the “% Activity at 5 μM” value was 108% and the EC50 (read-out: EC50 ≦ 1 μM) was ≤ 1000 nM.
In the case of `CCc1ccc(-n2nc(C)cc2COc2ccc(CC(C)C(=O)O)cc2C)cc1` (stereo not shown) [Example 95, 3-(4-((1-(4-ethylphenyl)-3-methyl-1H-pyrazol-5-yl)methoxy)-3-methylphenyl)-2-methylpropanoic acid], the “% Activity at 5 μM” value is reported as 100% and the EC50 (read-out: EC50 ≦ 1 μM) is reported as ≤ 1000 nM.
`CCc1ccc(-n2nc(C(F)(F)F)cc2COc2c(F)cc(CC(C)C(=O)O)cc2F)cc1` (stereo not shown) [Example 96, 3-(4-((1-(4-ethylphenyl)-3-(trifluoromethyl)-1H-pyrazol-5-yl)methoxy)-3,5-difluorophenyl)-2-methylpropanoic acid] was tested, and the “% Activity at 5 μM” value was 97% and the EC50 (read-out: EC50 ≦ 1 μM) was ≤ 1000 nM.
For `Cc1cc(COc2c(F)cc(CC(C)C(=O)O)cc2F)n(-c2ccc(Br)cc2)n1` (stereo not shown) [Example 97, 3-(4-((1-(4-bromophenyl)-3-methyl-1H-pyrazol-5-yl)methoxy)-3,5-difluorophenyl)-2-methylpropanoic acid], the “% Activity at 5 μM” value was 109% and the EC50 (read-out: EC50 ≦ 1 μM) was ≤ 1000 nM.
For `CCc1ccc(-n2nc(C)cc2COc2c(F)cc(C[C@@H](C)C(=O)O)cc2F)cc1` [Example 98, (R)-3-(4-((1-(4-ethylphenyl)-3-methyl-1H-pyrazol-5-yl)methoxy)-3,5-difluorophenyl)-2-methylpropanoic acid], the “% Activity at 5 μM” value was 104% and the EC50 (read-out: EC50 ≦ 1 μM) was ≤ 1000 nM.
For `CCc1ccc(-n2nc(C)cc2COc2c(F)cc(C[C@H](C)C(=O)O)cc2F)cc1` [Example 99, (S)-3-(4-((1-(4-ethylphenyl)-3-methyl-1H-pyrazol-5-yl)methoxy)-3,5-difluorophenyl)-2-methylpropanoic acid], the “% Activity at 5 μM” value was 73% and the EC50 (read-out: EC50 ≦ 1 μM) was ≤ 1000 nM.
For `CCc1ccc(-n2nccc2COc2c(F)cc(CC(C)C(=O)O)cc2F)cc1` (stereo not shown) [Example 100, 3-(4-((1-(4-ethylphenyl)-1H-pyrazol-5-yl)methoxy)-3,5-difluorophenyl)-2-methylpropanoic acid], the “% Activity at 5 μM” value was 109% and the EC50 (read-out: EC50 ≦ 1 μM) was ≤ 1000 nM.
With `CCc1cc(COc2c(F)cc(CC(C)C(=O)O)cc2F)n(-c2ccc(Cl)cc2)n1` (stereo not shown) [Example 101, 3-(4-((1-(4-chlorophenyl)-3-ethyl-1H-pyrazol-5-yl)methoxy)-3,5-difluorophenyl)-2-methylpropanoic acid] the “% Activity at 5 μM” value was 113% and the EC50 (read-out: EC50 ≦ 1 μM) was ≤ 1000 nM.
In the case of `CCOC(Cc1cc(F)c(OCc2cc(C)nn2-c2ccc(Cl)cc2)c(F)c1)C(=O)O` (stereo not shown) [Example 102, 3-(4-((1-(4-chlorophenyl)-3-methyl-1H-pyrazol-5-yl)methoxy)-3,5-difluorophenyl)-2-ethoxypropanoic acid], the “% Activity at 5 μM” value is reported as 61% and the EC50 [1] is reported as 1000 to 10000 nM.
In the case of `COc1cc(OCc2cc(C)nn2-c2ccc(Cl)cc2)ccc1CC(C)C(=O)O` (stereo not shown) [Example 103, 3-(4-((1-(4-Chlorophenyl)-3-methyl-1H-pyrazol-5-yl)methoxy)-2-methoxyphenyl)-2-methylpropanoic acid], the “% Activity at 5 μM” value is reported as 78% and the EC50 [1] is reported as 1000 to 10000 nM.
In the case of `Cc1cc(COc2c(F)cc(CC(C)C(=O)O)cc2F)n(-c2ccc(C3CCCCC3)cc2)n1` (stereo not shown) [Example 104, 3-(4-((1-(4-Cyclohexylphenyl)-3-methyl-1H-pyrazol-5-yl)methoxy)-3,5-difluorophenyl)-2-methylpropanoic acid], the “% Activity at 5 μM” value is reported as 27% and the EC50 (read-out: EC50 > 10 μM) is reported as > 10000 nM.
`CCCc1ccc(-n2nc(C)cc2COc2c(F)cc(CC(C)C(=O)O)cc2F)cc1` (stereo not shown) [Example 105, 3-(3,5-Difluoro-4-((3-methyl-1-(4-propylphenyl)-1H-pyrazol-5-yl)methoxy)phenyl)-2-methylpropanoic acid] was tested, and the “% Activity at 5 μM” value was 99% and the EC50 (read-out: EC50 ≦ 1 μM) was ≤ 1000 nM.
`Cc1cc(COc2cc3c(cc2F)C(CC(=O)O)CC3)n(-c2ccc(Cl)cc2)n1` (stereo not shown) [Example 106, 2-(5-((1-(4-Chlorophenyl)-3-methyl-1H-pyrazol-5-yl)methoxy)-6-fluoro-2,3-dihydro-1H-inden-1-yl)acetic acid] was tested, and the “% Activity at 5 μM” value was 88% and the EC50 (read-out: EC50 ≦ 1 μM) was ≤ 1000 nM.
For `Cc1cc(COc2c(F)cc(C3=C(C(=O)O)CCC3)cc2F)n(-c2ccc(Cl)cc2)n1` [Example 107, 2-(4-((1-(4-Chlorophenyl)-3-methyl-1H-pyrazol-5-yl)methoxy)-3,5-difluorophenyl)cyclopent-1-enecarboxylic acid], the “% Activity at 5 μM” value was 32% and the EC50 [1] was 1000 to 10000 nM.
In the case of `Cc1cc(COc2ccc(CC(C)C(=O)O)cc2F)n(-c2ccc(Cl)cc2)n1` (stereo not shown) [Example 108, 3-(4-((1-(4-Chlorophenyl)-3-methyl-1H-pyrazol-5-yl)methoxy)-3-fluorophenyl)-2-methylpropanoic acid], the “% Activity at 5 μM” value is reported as 106% and the EC50 (read-out: EC50 ≦ 1 μM) is reported as ≤ 1000 nM.
In the case of `Cc1cc(COc2ccc(CC(C)C(=O)O)cc2C)n(-c2ccc(Cl)cc2)n1` (stereo not shown) [Example 109, 3-(4-((1-(4-Chlorophenyl)-3-methyl-1H-pyrazol-5-yl)methoxy)-3-methylphenyl)-2-methylpropanoic acid], the “% Activity at 5 μM” value is reported as 114% and the EC50 (read-out: EC50 ≦ 1 μM) is reported as ≤ 1000 nM.
